Consider seven compounds from PubChem BioAssay (NCI).

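Step 1: Grow cells in 96-well plates. Step 2: Expose to compound for 48 hours at 5 concentrations. Step 3: Interpolate endpoints linearly; if unreached, use highest concentration. TGI marks complete inhibition of growth.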

Holding throughout (assay): DTP human tumour cell line panel, 48 h
Experiment [1] has as its system HOP-62 NSCLC.
Experiment [2] deals with EKVX NSCLC.
For experiment [3], the system named is SF-268 CNS.
In experiment [4] the test system is K-562 leukemia.
Experiment [5] deals with SF-539 CNS.
Experiment [6] deals with HCT-15 colon.
Experiment [7] relates to IGROV1 ovarian.
Experiment [8] relates to ACHN renal.
Experiment [9] concerns 786-0 renal.
Experiment [10] concerns TK-10 renal.
The test system of experiment [11] is HL-60(TB) leukemia.
Experiment [12] has as its system NCI/ADR-RES ovarian.

Usually TGI stands for the concentration at which net growth stops. Lower therefore signals more potent growth arrest. Turning to `O=C(Cc1ccc(Cl)c(Cl)c1)NCCCN1CCN(CCCN2CCCCC2)CC1`, the TGI in experiment [1] was 32.1 µM; in experiment [2], 39.3 µM; in experiment [3] it was 50.4 µM; in [4], 7.5 µM; in experiment [5], 28.8 µM; in experiment [6], 46.5 µM. Moreover, the TGI was 75 µM in experiment [7]; 60.2 µM in experiment [8]; 31.7 µM in experiment [9]; 32.3 µM in experiment [10]; 37.2 µM in experiment [11]; greater than 100 µM in experiment [12].
On to `CCOC(=O)C(NCc1ccccc1)(NC(=O)c1ccccc1)C(F)(F)F` (centres undefined), for which the TGI in experiment [1], in experiment [2], in experiment [3], in experiment [4], in experiment [5] and in experiment [6] was greater than 100 µM in each case. For the same compound, the TGI in experiment [7], in experiment [8], in experiment [9], in [10], in experiment [11] and in experiment [12] was greater than 100 µM in each case.
Consider `[N-]=N[N+]#I1OC(C(F)(F)F)(C(F)(F)F)c2ccccc21`, for which the TGI is 28.4 µM in experiment [1]; 34 µM in experiment [2]; 27.9 µM in experiment [3]; greater than 100 µM in experiment [4]; 30.6 µM in [5]; 21.2 µM in [6]. The TGI in experiment [7] is 32.7 µM; in experiment [8], 29.1 µM; in experiment [9], 31.6 µM; in experiment [10], 32 µM; in experiment [11] it was 30.6 µM; in experiment [12] it was 45.4 µM.
As to `COC(=O)OC[C@H]1O[C@@H](n2cc(C)c(=O)[nH]c2=O)CC1OC(=O)OC` (some centres undefined), the TGI in [1], in experiment [2], in [3], in [4], in experiment [5] and in [6] was greater than 100 µM in each case. The TGI in experiment [7], in [8], in experiment [9], in [10], in [11] and in [12] was greater than 100 µM each time.
Turning to `O=C(C=P(c1ccccc1)(c1ccccc1)c1ccccc1)C12CC3CC(CC(C3)C1)C2`, the total growth inhibition concentration (TGI) stood at 32.3 µM in experiment [1]; 29.3 µM in experiment [2]; 41.6 µM in experiment [3]; 25.2 µM in [4]; 37 µM in experiment [5]; 26.7 µM in experiment [6]. Further, the TGI in experiment [7] was found to be 30.8 µM; in experiment [8] it was 29.7 µM; in experiment [9] it was 33.4 µM; in experiment [10], 24.4 µM; in experiment [11], 27.1 µM; in experiment [12], 37.6 µM.
Turning to `CCOC(=O)CC(C)C(C#N)(OP1(=O)OC(c2ccccc2)C(C)N1C)c1ccccc1` (centres undefined), the TGI in [1], in [2], in experiment [3], in [4], in [5] and in experiment [6] was greater than 100 µM in each case. In addition, the total growth inhibition concentration (TGI) in experiment [7] is greater than 100 µM; in experiment [8], greater than 100 µM; in [9], greater than 100 µM; in experiment [10] it was greater than 100 µM; in experiment [11], 78.7 µM; in experiment [12] it was greater than 100 µM.
Turning to `Cc1c2c(n3c(nc4ccccc43)c1C#N)N(c1ccc(Cl)cc1)CC2`, the TGI in experiment [1], in [2], in experiment [3], in [4], in experiment [5] and in experiment [6] was greater than 100 µM each time. For the same compound, the TGI in experiment [7], in [8], in [9], in experiment [10], in experiment [11] and in [12] was greater than 100 µM throughout.
